Results reported in patent US8063088B2 (Hoffmann-La Roche Inc., priority 2008, dated 2011).

Legend:
human LXR alpha = target: T1, human LXR alpha (Homo sapiens, UniProt Q13133); test: Radioligand binding assay (SPA), LXR alpha LBD; details: radioligand displacement, LXRα-LBD on SPA beads; read-out: LXRalpha Binding IC50
T1 construct: human LXR alpha (aa 164 to 447); unspecified tag ('tagged versions'); made in house; host or cells: E. coli BL21 (pLysS)
T1 sequence (Q13133 164-447): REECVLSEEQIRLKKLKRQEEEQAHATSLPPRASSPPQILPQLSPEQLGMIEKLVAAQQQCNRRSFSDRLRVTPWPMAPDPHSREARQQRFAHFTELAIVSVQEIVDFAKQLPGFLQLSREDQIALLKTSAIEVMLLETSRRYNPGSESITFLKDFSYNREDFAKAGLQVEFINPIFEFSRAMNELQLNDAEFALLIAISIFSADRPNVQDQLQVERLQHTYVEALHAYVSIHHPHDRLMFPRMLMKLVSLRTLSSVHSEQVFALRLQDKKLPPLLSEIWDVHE
Experimental: (§1) The following tests were carried out in order to determine the activity of the compounds of the present invention. Background information on the performed assays can be found in: Nichols J S et al. “Development of a scintillation proximity assay for peroxisome proliferator-activated receptor gamma ligand binding domain”, Anal Biochem. 1998, 257: 112-119.
(§2) Mammalian expression vectors were constructed to express full-length human LXR alpha and LXR beta. Bacterial expression vectors were constructed to produce tagged versions of the ligand binding domains (LBD) of human LXR alpha (aa 164 to 447) and human LXR beta (aa 155 to 460). To accomplish this, the portions of the sequences encoding the LBDs were amplified from the full-length clones by PCR and then subcloned into the plasmid vectors. Final clones were verified by DNA sequence analysis (Willy et al., Genes Dev. 1995, 9:1033-45; Song et al., Proc Natl Acad Sci USA. 1994, 91:10809-13).
(§3) Induction, expression, and purification of LBD proteins were performed in E. coli strain BL21 (pLysS) cells by standard methods (Ref: Current Protocols in Molecular Biology, Wiley Press, edited by Ausubel et al).
(§4) Radioligand Binding Assay
(§5) LXR alpha and LXR beta receptor binding were assayed in buffer consisting of 50 mM HEPES, pH 7.4, 10 mM NaCl, 5 mM MgCl2. For each 96-well reaction, 500 ng of LXRα-LBD or 700 ng of LXR beta-LBD proteins were bound to 80 μg or 40 μg SPA beads respectively, in a final volume of 50 μl by shaking. The resulting slurry was incubated for 1 h at RT and centrifuged for 2 min at 1300×g. The supernatant containing unbound protein was removed, and the semi-dry pellet containing the receptor-coated beads was re-suspended in 50 μl of buffer. Radioligand (eg. 100,000 dpm of (N-(2,2,2-trifluoroethyl)-N-[4-(2,2,2-trifluoro-1-hydroxy-1-trifluoromethylethyl)-phenyl]-benzenesulfonamide)) was added, and the reaction incubated at RT for 1 h in the presence of test compounds, and then scintillation proximity counting was performed. All binding assays were performed in 96-well plates and the amount of bound ligand was measured on a Packard TopCount using OptiPlates (Packard). Dose response curves were measured within a range of concentration from 10^−10 M to 10^−4 M.

human LXR beta = target: T2, human LXR beta (Homo sapiens, UniProt P55055); test: Radioligand binding assay (SPA), LXR beta LBD; details: radioligand displacement, LXR beta-LBD on SPA beads; read-out: LXRbeta Binding IC50
T2 construct: human LXR beta (aa 155 to 460); unspecified tag ('tagged versions'); made in house; host or cells: E. coli BL21 (pLysS)
T2 sequence (P55055 155-460): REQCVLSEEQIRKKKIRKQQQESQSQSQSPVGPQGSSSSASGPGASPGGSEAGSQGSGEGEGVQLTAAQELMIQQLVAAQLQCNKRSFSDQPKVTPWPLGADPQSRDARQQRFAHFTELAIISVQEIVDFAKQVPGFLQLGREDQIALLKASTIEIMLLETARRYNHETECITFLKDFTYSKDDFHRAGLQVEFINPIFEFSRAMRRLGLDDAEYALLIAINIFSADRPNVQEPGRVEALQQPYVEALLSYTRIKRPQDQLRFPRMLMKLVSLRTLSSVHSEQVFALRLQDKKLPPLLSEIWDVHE
Experimental: as §1, §2, §3, §4, §5

Row | Structure (SMILES) | IC50 (human LXR alpha) [µM] | IC50 (human LXR beta) [µM]
1 | CC(C)N1C(=O)N(S(=O)(=O)C(C)C)CC1c1cccc(-c2cccc(S(C)(=O)=O)c2)c1 (stereo not drawn) [Example 13, 3-Isopropyl-4-(3′-methanesulfonyl-biphenyl-3-yl)-1-(propane-2-sulfonyl)-imidazolidin-2-one] | 2.49 | 0.036
2 | CC(C)N1C(=O)N(S(=O)(=O)c2ccccc2F)CC1c1cccc(-c2cccc(S(C)(=O)=O)c2)c1 (stereo not drawn) [Example 14, 1-(2-Fluoro-benzenesulfonyl)-3-isopropyl-4-(3′-methanesulfonyl-biphenyl-3-yl)-imidazolidin-2-one] | 0.01 | 0.006
3 | Cc1oncc1S(=O)(=O)N1CC(c2cccc(-c3cccc(S(C)(=O)=O)c3)c2)N(C(C)C)C1=O (stereo not drawn) [Example 15, 3-Isopropyl-4-(3′-methanesulfonyl-biphenyl-3-yl)-1-(5-methyl-isoxazole-4-sulfonyl)-imidazolidin-2-one] | 2.58 | 0.16
4 | CS(=O)(=O)c1cc(-c2cccc(C3CN(S(=O)(=O)c4ccccc4)C(=O)N3c3ccccc3)c2)ccc1CO (stereo not drawn) [Example 16, 1-Benzenesulfonyl-4-(4′-hydroxymethyl-3′-methanesulfonyl-biphenyl-3-yl)-3-phenyl-imidazolidin-2-one] | 0.475 | 0.029
5 | CC(C)N1C(=O)N(S(C)(=O)=O)CC1c1cccc(-c2cccc(S(C)(=O)=O)c2)c1 (stereo not drawn) [Example 17, 3-Isopropyl-1-methanesulfonyl-4-(3′-methanesulfonyl-biphenyl-3-yl)-imidazolidin-2-one] | 52.8 | 2.73
6 | CCS(=O)(=O)N1CC(c2cccc(-c3cccc(S(C)(=O)=O)c3)c2)N(C(C)C)C1=O (stereo not drawn) [Example 18, 1-Ethanesulfonyl-3-isopropyl-4-(3′-methanesulfonyl-biphenyl-3-yl)-imidazolidin-2-one] | 5.01 | 0.106
7 | CS(=O)(=O)c1cc(-c2ccc(C3CN(S(=O)(=O)c4ccccc4)C(=O)N3c3ccccc3)cc2)ccc1CO (stereo not drawn) [Example 19, 1-Benzenesulfonyl-4-(4′-hydroxymethyl-3′-methanesulfonyl-biphenyl-4-yl)-3-phenyl-imidazolidin-2-one] | 0.045 | 0.018
8 | CC(C)N1C(=O)N(S(=O)(=O)c2ccccc2)CC1c1cccc(-c2ccc(CO)c(S(C)(=O)=O)c2)c1 (stereo not drawn) [Example 20, 1-Benzenesulfonyl-4-(4′-hydroxymethyl-3′-methanesulfonyl-biphenyl-3-yl)-3-isopropyl-imidazolidin-2-one] | 0.006 | 0.001
9 | CC(C)N1C(=O)N(S(=O)(=O)c2ccccc2)CC1c1cccc(-c2cccc([N+](=O)[O-])c2)c1 (stereo not drawn) [Example 21, 1-Benzenesulfonyl-3-isopropyl-4-(3′-nitro-biphenyl-3-yl)-imidazolidin-2-one] | 2.91 | 0.155
10 | Cc1ccc(F)cc1-c1cccc(C2CN(S(=O)(=O)c3ccccc3)C(=O)N2C(C)C)c1 (stereo not drawn) [Example 22, 1-Benzenesulfonyl-4-(5′-fluoro-2′-methyl-biphenyl-3-yl)-3-isopropyl-imidazolidin-2-one] | 4.71 | 1.36
11 | CC(C)N1C(=O)N(S(=O)(=O)c2ccccc2)CC1c1cccc(-c2cncc(S(C)(=O)=O)c2)c1 (stereo not drawn) [Example 23, 1-Benzenesulfonyl-3-isopropyl-4-[3-(5-methanesulfonyl-pyridin-3-yl)-phenyl]-imidazolidin-2-one] | 2.79 | 0.025
12 | CC(C)N1C(=O)N(S(=O)(=O)c2ccccc2)CC1c1cccc(-c2cccc(S(N)(=O)=O)c2)c1 (stereo not drawn) [Example 24, 3′-(1-Benzenesulfonyl-3-isopropyl-2-oxo-imidazolidin-4-yl)-biphenyl-3-sulfonic acid amide] | 0.048 | 0.001
13 | CC(C)N1C(=O)N(S(=O)(=O)c2ccccc2)CC1c1cccc(-c2cc(F)ccc2Cl)c1 (stereo not drawn) [Example 25, 1-Benzenesulfonyl-4-(2′-coro-5′-fluoro-biphenyl-3-yl)-3-isopropyl-imidazolidin-2-one] | 2.03 | 0.265

Next, values leading:

Row | IC50 (human LXR alpha) [µM] | IC50 (human LXR beta) [µM] | Structure (SMILES)
14 | 1.99 | 0.315 | Cc1ccc(Cl)cc1-c1cccc(C2CN(S(=O)(=O)c3ccccc3)C(=O)N2C(C)C)c1 (stereo not drawn) [Example 26, 1-Benzenesulfonyl-4-(5′-chloro-2′-methyl-biphenyl-3-yl)-3-isopropyl-imidazolidin-2-one]
15 | 6.23 | 3.8 | COc1ccc(F)cc1-c1cccc(C2CN(S(=O)(=O)c3ccccc3)C(=O)N2C(C)C)c1 (stereo not drawn) [Example 27, 1-Benzenesulfonyl-4-(5′-fluoro-2′-methoxy-biphenyl-3-yl)-3-isopropyl-imidazolidin-2-one]
16 | 2.96 | 0.505 | CC(C)N1C(=O)N(S(=O)(=O)c2ccccc2)CC1c1cccc(-c2cc(C#N)ccc2Cl)c1 (stereo not drawn) [Example 28, 3′-(1-Benzenesulfonyl-3-isopropyl-2-oxo-imidazolidin-4-yl)-6-chloro-biphenyl-3-carbonitrile]
17 | 2.25 | 0.41 | CC(C)N1C(=O)N(S(=O)(=O)c2ccccc2)CC1c1cccc(-c2cccc(S(=O)(=O)NC(C)(C)C)c2)c1 (stereo not drawn) [Example 29, 3′-(1-Benzenesulfonyl-3-isopropyl-2-oxo-imidazolidin-4-yl)-biphenyl-3-sulfonic acid tert-butylamide]
18 | 0.095 | 0.0104 | CCOc1ccc(F)c(-c2cccc(C3CN(S(=O)(=O)c4ccccc4)C(=O)N3C(C)C)c2)c1 (stereo not drawn) [Example 30, 1-Benzenesulfonyl-4-(5′-ethoxy-2′-fluoro-biphenyl-3-yl)-3-isopropyl-imidazolidin-2-one]
19 | 0.815 | 0.165 | Cc1ccc(C)c(-c2cccc(C3CN(S(=O)(=O)c4ccccc4)C(=O)N3C(C)C)c2)c1 (stereo not drawn) [Example 31, 1-Benzenesulfonyl-4-(2′,5′-dimethyl-biphenyl-3-yl)-3-isopropyl-imidazolidin-2-one]
20 | 0.95 | 0.0995 | CC(C)N1C(=O)N(S(=O)(=O)c2ccccc2)CC1c1cccc(-c2cc(F)ccc2F)c1 (stereo not drawn) [Example 32, 1-Benzenesulfonyl-4-(2′,5′-difluoro-biphenyl-3-yl)-3-isopropyl-imidazolidin-2-one]
21 | 52.7 | 0.53 | CS(=O)(=O)c1cccc(-c2cccc(C3CN(S(=O)(=O)c4ccccc4)CC(=O)N3c3ccccc3)c2)c1 (stereo not drawn) [Example 33, 4-Benzenesulfonyl-6-(3′-methanesulfonyl-biphenyl-3-yl)-1-phenyl-piperazin-2-one]
22 | 0.056 | 0.002 | CS(=O)(=O)c1cccc(-c2cccc(C3CN(S(=O)(=O)c4ccccc4)CCN3c3ccccc3)c2)c1 (stereo not drawn) [Example 34, 4-Benzenesulfonyl-2-(3′-methanesulfonyl-biphenyl-3-yl)-1-phenyl-piperazine]
23 | 2.62 | 0.425 | NCc1cccc(-c2cccc(C3CN(S(=O)(=O)c4ccccc4)CCN3c3ccccc3)c2)c1 (stereo not drawn) [Example 35, C-[3′-(4-Benzenesulfonyl-1-phenyl-piperazin-2-yl)-biphenyl-3-yl]-methylamine]
24 | 44.1 | 19.3 | Cc1ccc(C)c(-c2cccc(C3CN(C(=O)OC(C)(C)C)CCC3c3ccccc3)c2)c1 (stereo not drawn) [Example 40, trans-3-(2′,5′-Dimethyl-biphenyl-3-yl)-4-phenyl-piperidine-1-carboxylic add tert-butyl ester]
